According to patent publication US7892830B2, “Clonal culture of human pluripotent stem cells” (Wisconsin Alumni Research Foundation, priority 2007, dated 2011):
Counter-ions that a name gives are not always drawn.

Tests used:
[1] = test system: H1 human ES cells; assay: 6-well cloning efficiency assay in TeSR1 medium on Matrigel, colonies counted manually; assay type: cell-based; settings: for max. CE (%): cloning efficiency = CFU per number of plated single cells; for confirmation in 6-well assay as active in increasing cloning efficiency: 6-well plates, varying concentrations
Description: As described above, a difficulty in growing pluripotent cells, like ES cells, in culture is their low cloning efficiency. As used herein, “cloning efficiency” means a number of cells individualized by trypsin that form new ES cell colonies divided by the number of individual cells plated in a well of a culture dish. In our prior experience with growing human ES cells in defined and animal-free conditions on a matrix (e.g., Matrigel®), cloning efficiency was very low (i.e., less than 0.1%). This contrasts with prior experience using culture systems based on medium conditioned by exposure to fibroblasts, where the cloning efficiency, while still low (i.e., less than 2%), was high enough to initiate clonal ES cell colonies. As disclosed herein, the addition of a small molecule to the culture medium in which human ES cells are grown permits the ES cell cultures to be clonally cultivated in a manner that is extremely difficult without the addition of the small molecule. Several small molecules are exemplified herein for this purpose.
For these assays, 10,000 cells per well were plated on Matrigel®—coated plates and then treated every other day for a total of four days. with the small molecules as described above. To evaluate the effect of the tested small molecules on cloning efficiency, we manually counted colonies after 10 days.
We determined cloning efficiency (CE; the number of colony forming units (CFU) per number of plated single cells, trypsin/EDTA treated). HA-100 was the first molecule identified in the small molecule screen, following which other structurally similar small molecules were also tested for cloning efficiency.

[2] = test system: PKA; settings: cited from earlier work
[3] = test system: PKC; settings: cited from earlier work
[4] = test system: PKG; settings: cited from earlier work
[5] = test system: H1 human ES cells; assay: Example 2 colony formation with ROCK inhibitors, ALP assay and examination by eye; assay type: cell-based; settings: for concentration showing the most colony formation with the ALP assay: tested 5 nM to 20 μM, TeSR1, Matrigel
Method: The experiments described in Example 1 were repeated with H-1152 (EMD Chemicals, Inc./Calbiochem; San Diego, Calif.) and Y-27632 (EMD Chemicals, Inc./Calbiochem). Briefly, H-1152 or Y-27632 was dissolved in DMSO to a concentration of 20 mM. H1 human ES cells were grown on Matrigel®—coated plates in TeSR™1 medium at a density of 100,000 cells per ml. H-1152 and Y-27632 were added to wells on their own plates at a final concentration of 20 μM, 15 μM, 10 μM or 5 μM in DMSO. DMSO and HA-100 (10 μM) were used as the negative and positive controls, respectively. The plates were treated every other day for a total of four days. Colony formation was detected with the ALP assay described above.
In a second experiment, H-1152 and Y-27632 were added to wells on their own plates at a final concentration of 5 μM, 500 nM, 50 nM or 5 nM in DMSO. DMSO and HA-100 (10 μM) were used as the negative and positive controls, respectively. The plates were treated as described above.

[6] = test system: ROCK1/ROCK2; settings: read-out: IC50 ROCK1/ROCK2; competing with ATP; cited from earlier work
[7] = test system: H1 human ES cells; assay: Fluorometric high-throughput ALP (DiFMUP) screen for colony formation, 96-well; assay type: cell-based; settings: 10 μM, 500 cells per well, TeSR1, a typical hit read above 200,000
Method: The screen was conducted using a fluorescent, high-throughput assay to screen small molecules for their ability to enhance cloning efficiency. A soluble, non-fluorescent substrate (6,8-difluoro-4-methylumbelliferyl phosphate, DiFMUP) was converted to a fluorescent product by an enzyme specific for undifferentiated, human ES cells called alkaline phosphatase (ALP).
In wells that had colonies larger than 2,000 cells, and which formed 12 days after seeding 500 individualized human ES cells in a 96-well plate, increased fluorescence from DiFMUP hydrolyzed by ALP indicated any well that contained a compound that enabled colony formation. […] Thus, this assay tested both for clonal propagation and for maintenance of undifferentiated status.
The screen used a small molecule library made up of characterized compounds with known bioactivity that was purchased from Sigma-Aldrich (St. Louis, Mo.). Members of the library were dissolved in DMSO to a concentration of 1 mM. All other chemicals used were purchased from Sigma, unless otherwise indicated in the text. H1 human ES cells (WiCell Research Institute; Madison, Wis.) were grown in the defined TeSR™1 medium, which was prepared as described in Ludwig et al., supra.
The assay was performed at the Keck-UWCCC Small Molecule Screening Facility (University of Wisconsin—Madison; Madison, Wis.) in 96-well microplates (Nunclon/Nunc; Roskilde, Denmark) using a Beckman Biomek® FX Laboratory Workstation and a Perkin Elmer VictorIII® Plate Reader. The microplates were coated with Matrigel® (#354230, growth factor reduced; BD Bioscience; San Jose, Calif.) at 0.3 mg/ml in DMEM/F12 (Invitrogen; Carlsbad, Calif.) for 1 hour at room temperature.
H1 human ES cells were grown in 6-well Nunclon® dishes to day 5, and then treated with 1 ml Trypsin/EDTA (Invitrogen) containing 1% chick serum for 5 minutes at 37° C. Trypsin was quenched with 20% FBS in DMEM/F12, and the cells were collected by centrifugation for 1.5 minutes at 200 RCF. After aspiration of the medium, cells were re-suspended in TeSR™1 medium to a density of 5,000 cells per ml. Of this cell suspension, 100 μL was dispensed into each well, and 1 μL of a […] DMSO solution of inhibitor was added and mixed by pipetting, resulting in a final inhibitor concentration of 10 μM. The plates were incubated at 5% CO2 at 37° C. for 2 days. Then, the medium was exchanged with TeSR™1 medium not having the cloning molecule. […]
To detect colony formation, we used a fluorometric, ALP assay (EnzChek®; Invitrogen). […] In wells that had colonies, increased fluorescence indicated any well containing a compound that led to colony formation. […] Plates were read by a multi-plate reader (excitation 355 nm, emission 455 nm, at 0.1 ms emission intervals).

[8] = test system: human ES cells; assay: Cloning efficiency in conditioned medium (CM); assay type: cell-based; settings: CM substituted for TeSR1, otherwise identical treatment
Method: (§1) We have also tested these small molecules for effects on human ES cell cloning on other medium. We tested the effect on conditioned medium (CM) substituting TeSR™1 medium with CM and otherwise identical treatment. The cloning efficiency of the medium increased with addition of HA-100. In addition, we performed a similar test with unconditioned medium to which 100 ng/μl of bFGF had been added.

[9] = test system: human ES cells; assay: Cloning efficiency in unconditioned medium with added bFGF; assay type: cell-based; settings: unconditioned medium with 100 ng/μl bFGF, compared to control cultures lacking HA-100
Method: as §1

[10] = test system: Oct4; assay: Oct4 immunofluorescence of cloned colonies; assay type: cell-based, human; settings: colonies from HA-100 treatment
Description: We also tested the resulting colonies from HA-100 treatment for the presence of Oct4, an intracellular marker for pluripotent ES cells.

| Molecule | max. CE (%) ([1]; TeSR1, Matrigel) | IC50 [2] | IC50 [3] | IC50 [4] | confirmation in 6-well assay as active in increasing cloning efficiency [1] | result of small molecule screen (colony formation, ALP fluorescence) [7] | further results |
| --- | --- | --- | --- | --- | --- | --- | --- |
| Cl.Cl.O=S(=O)(c1cccc2cnccc12)N1CCCNCC1 [HA-1077, 1-(5-isoquinolinesulfonyl)homopiperazine dihydrochloride] |  |  |  |  |  |  | effect on cloning efficiency of human ES cells ([1]; related small molecules tested after HA-100): increased cloning efficiency |
| CC1CNCCN1S(=O)(=O)c1cccc2cnccc12 (centres unmarked) [H-7, 1-(5-isoquinolinesulfonyl)-2-methylpiperazine] | <1% | 3 µM | 6 µM | 5.8 µM |  |  |  |
| C[C@@H](N)[C@H]1CC[C@H](C(=O)Nc2ccncc2)CC1 [Y-27632, (+)-(R)-trans-4-(1-aminoethyl)-N-(4-pyridyl)cyclohexanecarboxamide dihydrochloride] |  |  |  |  |  |  | colony formation by eye compared with HA-100 (at 10 μM) ([5]; concentrations above 5 μM): equal or better than HA-100; concentration showing the most colony formation with the ALP assay [5]: 5 µM; IC50 [6]: 0.8 µM |
| CC1CN(S(=O)(=O)c2cccc3cnccc23)CCN1 (centres unmarked) [iso H-7, 1-(5-isoquinolinesulfonyl)-3-methylpiperazine] | <1% | > 3 µM | > 6 µM | > 5.8 µM |  |  |  |
| Cc1cncc2cccc(S(=O)(=O)N3CCCNC[C@@H]3C)c12 [H-1152, (S)-(+)-2-methyl-1-[(4-methyl-5-isoquinolinyl)sulfonyl]homopiperazine dihydrochloride] |  |  |  |  |  |  | colony formation by eye compared with HA-100 (at 10 μM) ([5]; concentrations above 500 nM): equal or better than HA-100; working concentration compared with HA-100 ([5]; facilitating clonal growth): ten times lower; concentration showing the most colony formation with the ALP assay [5]: 0.5 µM |
| CC(C)CCC[C@@H](C)[C@H]1CC[C@H]2C3=CC[C@H]4C[C@@H](O)CC[C@]4(C)[C@H]3CC[C@]12C [lathosterol] |  |  |  |  | only HA-100 could be confirmed | hits |  |
| O=S(=O)(c1cccc2cnccc12)N1CCNCC1 [HA-100, 1-(5-isoquinolinesulfonyl)piperazine hydrochloride] | 2% | 8 µM | 12 µM | 4 µM | confirmed | hits | effect on cloning efficiency in conditioned medium [8]: increased; effect on cloning efficiency in unconditioned medium [9]: increased cloning efficiency; Oct4 expression in cloned colonies (immunofluorescence) [10]: maintenance of Oct4 expression |
| Cl.N=C(N)NCCNS(=O)(=O)c1cccc2cnccc12 [HA-1004, N-(2-guanidinoethyl)-5-isoquinolinesulfonamide hydrochloride] | <1% | 2.3 µM | 40 µM | 1.3 µM |  |  | CFU+ (concentration range with colony forming units) ([1]; 6-well plates, 10,000 cells per well, TeSR1, Matrigel, colonies counted after 10 days): >50.0 µM |
| CC1(C)OC(=O)C=CC2(C)C1CC(O)C1(C)C2CCC2(C)C(c3ccoc3)OC(=O)C3OC321 (centres unmarked) [obacunol] |  |  |  |  | only HA-100 could be confirmed | hits |  |
| O=S(=O)(NCCNC/C=C/c1ccc(Br)cc1)c1cccc2cnccc12 [H-89, N-[2-p-bromo-cinnamylamino)ethyl]-5-isoquinolinesulfonamide dihydrochloride] | 2.5% |  | 31.7 µM | 0.48 µM |  |  |  |
| quipazine dimaleate |  |  |  |  | only HA-100 could be confirmed | hits |  |
